Reference: patent US20240034992A1, “DOPAMINERGIC NEURONS COMPRISING MUTATIONS AND METHODS OF USE THEREOF” (FUJIFILM Cellular Dynamics, Inc., priority 2021, published 2024)

Key:
GCase [1] = biological target: T1, GCase (Homo sapiens, UniProt P04062); test: GCase activity assay after compound treatment, SNCA A53T iPSC-derived DA neurons; assay type: cell-based; conditions: 10 uM for two weeks, day 21 post thaw
T1 construct: endogenous in cells; host or cells: DA neurons differentiated from LRRK2 patient, SNCA A53T engineered or AHN (healthy donor) iPSCs (lysate)
T1 sequence (P04062 40-536): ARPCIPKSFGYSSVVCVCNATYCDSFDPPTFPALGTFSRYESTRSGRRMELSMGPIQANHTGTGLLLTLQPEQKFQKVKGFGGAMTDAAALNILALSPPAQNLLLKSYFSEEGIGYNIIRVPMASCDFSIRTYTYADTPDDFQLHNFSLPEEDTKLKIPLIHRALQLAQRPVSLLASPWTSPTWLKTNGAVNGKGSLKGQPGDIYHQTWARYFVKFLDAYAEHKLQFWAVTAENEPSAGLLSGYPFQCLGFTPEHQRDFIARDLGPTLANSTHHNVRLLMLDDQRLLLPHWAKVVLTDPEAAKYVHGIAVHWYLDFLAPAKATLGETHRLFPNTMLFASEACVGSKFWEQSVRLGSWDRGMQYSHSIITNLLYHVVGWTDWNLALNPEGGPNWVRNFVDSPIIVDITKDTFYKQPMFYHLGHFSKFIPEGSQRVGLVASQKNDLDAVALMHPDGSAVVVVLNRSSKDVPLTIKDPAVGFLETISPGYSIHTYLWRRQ
Method: (§3) The cells were harvested, lysed and centrifuged at 20,000×g for 20 min at 4° C. […] Recombinant human Glucosylceramidase/GBA (rhGBA) (R&D, 7410-GHB-020) was used as a positive control. Samples were incubated for 40 minutes at 37° C. and reaction stopped by adding equivolume 1M glycine, pH 12.5. 100 μl of reactions were loaded into white 96-well plates (Nunc, #136101) and fluorescence (ex=355 nm, em=460, 0.1 s) signal were measured in the CLARIOstar plate reader (Molecular Devices). Relative fluorescent units (RFUs) from non CBE-treated lysates were calculated by subtracting the signal from the corresponding CBE-treated lysates. […] DA neurons were cultured at high density (200,000/well) in the 96 well plates. Gcase activity was measured from DA neurons derived from GBA, LRRK2 and AHN iPSCs after compound treatment. […] Total protein in the lysate was quantified using Pierce BCA Protein Assay Kit (ThermoFisher). […] Single compounds were tested both for acute exposure (3 days) and chronic exposure (two weeks).

GCase [2] = biological target: T1, GCase; test: GCase activity assay after compound treatment, LRRK2 (G2019S) iPSC-derived DA neurons; assay type: cell-based; conditions: 10 uM for two weeks, day 21 post thaw
Method: as §3

SNCA DA neurons = test: Calcium imaging (Ca oscillation, FDSS/μCELL) of DA neuron spheroids, SNCA; assay type: cell-based, human; conditions: 10 uM for one week
Method: (§1) For calcium imaging experiments, DA neurons were cultured as spheroids (50,000/well) in the 384 U bottom ULA plates (S-bio plates) and fed with Brainphys complete media (Brainphys basal media+neural supplement A+NSS). […] On day 14 post-plating (7 days post-treatment) cells were loaded with 1× EarlyTOX cardiotoxicity kit and after 2 hours of incubation at 37° C., Ca2+ oscillation captured using FDSS/μCELL instrument for 20 minutes. Waveform software was used for quantification of Ca oscillation and data were analyzed using GraphPad Prism.
(§2) Calcium oscillation traces of day 14 post plated DA neurons were captured using FDSS/μCELL instrument for 20 minutes. […] Calcium transient properties including (FIG. 13B) number of peaks, (FIG. 13C) peak rates per minute and (FIG. 13D) area under the curve/peak (average) were quantified for all wells (repeats) of each cell line using Waveform software.

AHN DA neurons = test: Calcium imaging (Ca oscillation, FDSS/μCELL) of DA neuron spheroids, AHN; assay type: cell-based, human; conditions: 10 uM for one week
Method: as §1, §2

GCase [3] = test: GCase activity assay after compound treatment, GBA (N370S) iPSC-derived DA neurons; assay type: cell-based, human; conditions: for GCase activity (mean±SD): chronic treatment (two weeks) 10 uM, DMSO=90302±3986
Method: The cells were harvested, lysed and centrifuged at 20,000×g for 20 min at 4° C. […] Recombinant human Glucosylceramidase/GBA (rhGBA) (R&D, 7410-GHB-020) was used as a positive control. Samples were incubated for 40 minutes at 37° C. and reaction stopped by adding equivolume 1M glycine, pH 12.5. 100 μl of reactions were loaded into white 96-well plates (Nunc, #136101) and fluorescence (ex=355 nm, em=460, 0.1 s) signal were measured in the CLARIOstar plate reader ([…]). Relative fluorescent units (RFUs) from non CBE-treated lysates were calculated by subtracting the signal from the corresponding CBE-treated lysates. […] DA neurons were cultured at high density (200,000/well) in the 96 well plates. Gcase activity was measured from DA neurons derived from GBA, LRRK2 and AHN iPSCs after compound treatment. […] Total protein in the lysate was quantified using Pierce BCA Protein Assay Kit (ThermoFisher). GCase activity can be used as a read out for compound screening with disease neurons where AHN serve as a control and compounds that could rescue the GCase activity would be considered a positive hit. […] Single compounds were tested both for acute exposure (3 days) and chronic exposure (two weeks).

GCase [4] = biological target: T1, GCase; test: GCase activity assay after compound treatment, AHN iPSC-derived DA neurons; assay type: cell-based; conditions: 10 uM for two weeks, day 21 post thaw, from 165052 (DMSO vehicle)
Method: as §3

LRRK2 DA neurons = test: Calcium imaging (Ca oscillation, FDSS/μCELL) of DA neuron spheroids, LRRK2; assay type: cell-based, human
Method: as §1, §2

increase in Gcase activity (GCase [1]): 14%
increase in Gcase activity (GCase [2]): 18%
GCase activity (mean±SD) (GCase [3]; combinatorial screen, GBA cells): highest GCase activity
Gcase activity (Mean) (GCase [4]): 171669
SMILES: Nc1c(Br)cc(Br)cc1CN[C@H]1CC[C@H](O)CC1 [Ambroxol]
effect on Ca oscillation compared to the untreated AHN DA neurons (SNCA DA neurons; SNCA DA neurons): caused hyperexcitability
number of peaks (mean±SD) (SNCA DA neurons; SNCA, day 14 post plating, 20 minutes, untreated 24.5±5.3): 33.8±1.5
Peak rate (mean±SD) (SNCA DA neurons; SNCA, day 14 post plating, untreated 1.26±0.3): 1.61±0.12 peaks per minute
effect on Ca oscillation compared to the untreated AHN DA neurons (AHN DA neurons; AHN DA neurons): caused hyperexcitability
number of peaks (mean±SD) (AHN DA neurons; AHN, day 14 post plating, 20 minutes, untreated 21.55±3): 33.75±7.14
Peak rate (mean±SD) (AHN DA neurons; AHN, day 14 post plating, untreated 1.12±0.16): 1.74±0.32 peaks per minute
increase in Gcase activity (GCase [3]; GBA neurons, 10 uM for two weeks, day 21 post thaw): 12%
increase in Gcase activity (GCase [3]; combinatorial screen, GBA cells, chronic treatment 10 uM, compared to DMSO): 48%
GCase activity (mean±SD) (GCase [3]; combinatorial screen, GBA cells, listed as ABX): 133659±10542
Peak rate (mean±SD) (LRRK2 DA neurons; LRRK2, 10 uM for one week, day 14 post plating, untreated 1.52±0.16): 1.89±0.18 peaks per minute
effect on Ca oscillation compared to the untreated AHN DA neurons (LRRK2 DA neurons; LRRK2 DA neurons, 10 uM for one week): caused hyperexcitability
